# Reference: paper PMC8725837, “2-Arylquinolines as novel anticancer agents with dual EGFR/FAK kinase inhibitory activity: synthesis, biological evaluation, and molecular modelling insights” (Journal of Enzyme Inhibition and Medicinal Chemistry, 2021)
# Key:
# recombinant human TOP1 = target: T1, recombinant human TOP1 (Homo sapiens, UniProt P11387); assay: Topoisomerase I-mediated DNA cleavage assay; conditions: tested at 0.1, 1, 10, 100 µM
# T1 sequence (P11387 1-765): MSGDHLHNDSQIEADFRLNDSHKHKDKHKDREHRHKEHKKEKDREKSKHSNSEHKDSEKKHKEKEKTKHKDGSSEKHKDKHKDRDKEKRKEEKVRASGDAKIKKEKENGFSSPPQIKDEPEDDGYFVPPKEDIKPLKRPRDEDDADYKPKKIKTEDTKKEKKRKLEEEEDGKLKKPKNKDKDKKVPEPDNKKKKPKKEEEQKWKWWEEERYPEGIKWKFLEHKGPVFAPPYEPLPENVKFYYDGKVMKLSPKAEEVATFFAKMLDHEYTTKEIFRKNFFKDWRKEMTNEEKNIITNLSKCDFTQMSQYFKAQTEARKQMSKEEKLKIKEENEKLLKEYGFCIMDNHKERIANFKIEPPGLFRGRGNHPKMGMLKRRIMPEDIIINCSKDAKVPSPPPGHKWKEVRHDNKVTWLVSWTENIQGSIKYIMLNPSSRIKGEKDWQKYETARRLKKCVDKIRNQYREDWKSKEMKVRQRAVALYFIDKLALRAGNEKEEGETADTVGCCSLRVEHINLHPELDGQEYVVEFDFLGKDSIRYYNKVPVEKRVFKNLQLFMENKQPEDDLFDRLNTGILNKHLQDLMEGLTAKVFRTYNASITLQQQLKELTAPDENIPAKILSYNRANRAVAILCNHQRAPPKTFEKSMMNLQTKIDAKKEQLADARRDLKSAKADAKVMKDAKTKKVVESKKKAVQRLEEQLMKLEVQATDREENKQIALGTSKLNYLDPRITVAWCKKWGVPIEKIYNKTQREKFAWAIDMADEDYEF
# Description: Radiolabeled DNA was incubated with recombinant human TOP1 in 20 µL reaction buffer (10 mmol/L Tris-HCl, pH 7.5, 50 mmol/L KCl, 5 mmol/L MgCl2, 0.1 mmol/L EDTA, and 15 µg/mL BSA) at 30 °C for 20 min in the presence of the indicated drug concentrations. Reactions were terminated by adding SDS (0.5% final concentration) followed by the addition of two volumes of loading dye (80% formamide, 10 mmol/L sodium hydroxide, 1 mmol/L sodium EDTA, 0.1% xylene cyanol, and 0.1% bromophenol blue). Aliquots of reaction mixtures were subjected to 20% denaturing PAGE. Gels were dried and visualised by using PhosphorImager and Image Quant software (Molecular Dynamics).
# [1] = tested on: DLD-1 colorectal cancer cell line; assay: MTT antiproliferative assay, DLD-1; conditions: for GI% DLD1: 10 µM, 24 h, MTT; for IC50: Homo sapiens, DLD-1, 24 h, read-out: IC50 DLD1 (half maximal growth inhibitory concentration)
# c-Src = target: T2, c-Src (Homo sapiens, UniProt P12931); assay: Z`-LYTE kinase profiling, c-Src; type: biochemical
# T2 construct: purchased Invitrogen/Life Technologies
# [2] = tested on: MDMBA-231 breast cancer cell line; assay: MTT antiproliferative assay, MDMBA-231; type: cell-based; conditions: 10 µM, 24 h
# Description: (§1) At least, three independent experiments were performed.
# [3] = tested on: MCF-7 breast cancer cell line; assay: MTT antiproliferative assay, MCF-7; type: cell-based; conditions: 10 µM, 24 h
# Description: as §1
# VEGFR-2 = target: T3, VEGFR-2 (Homo sapiens, UniProt P35968); assay: Z`-LYTE kinase profiling, VEGFR-2; type: biochemical
# T3 construct: purchased Invitrogen/Life Technologies
# HER-2 = target: T4, HER-2 (Homo sapiens, UniProt P04626); assay: Z`-LYTE kinase profiling, HER-2; type: biochemical
# T4 construct: purchased Invitrogen/Life Technologies
# [4] = tested on: DLD-1 colorectal cancer cell line; assay: Annexin V-FITC/propidium iodide apoptosis assay (AV/PI); type: cell-based; conditions: 3 µM, 24 h; control 7%
# Description: Also, compounds 6f, 6i, 16d, and 20f exerted potential apoptotic effect elevating the total percentage of apoptotic cells to 84.33, 71.66, 51.66, and 80.66%, respectively.
# Flow cytometric analysis was conducted using FACS Calibur flow cytometer (BD Biosciences, San Jose, CA, USA).
# FAK = FAK (Homo sapiens, UniProt Q05397); assay: Z`-LYTE kinase inhibitory assay, FAK
# [5] = tested on: HCT-116 colorectal cancer cell line; assay: MTT antiproliferative assay, HCT-116; conditions: for GI% HCT-116: 10 µM, 24 h, MTT; for IC50: Homo sapiens, HCT-116, 24 h, read-out: IC50 HCT-116 (half maximal growth inhibitory concentration)
# Description: After the incubation of the tested compounds for 24 h, the percent growth inhibition (GI%) was calculated.
# Cells were seeded at 1 × 10^4 cells/well and cultured overnight in a 96-well plate. […] Then, 150 µl DMSO was used to solubilise MTT formazan crystals. Finally, the plates were shaken, and the optical density was determined at 570 nm using ELISA plate reader. At least, three independent experiments were performed. Percentage of growth inhibition was determined as (1-[OD of treated cells/OD of control cells]). […] The IC50 values were calculated using Prism v0.8 software (GraphPad Software Inc., La Jolla, CA).
# [6] = tested on: HeLa cervical cancer cell line; assay: MTT antiproliferative assay, HeLa; type: cell-based; conditions: 10 µM, 24 h
# Description: as §1
# BTK = target: T5, BTK (Homo sapiens, UniProt Q06187); assay: Z`-LYTE kinase profiling, BTK; type: biochemical
# T5 construct: purchased Invitrogen/Life Technologies
# VEGFR-1 = target: T6, VEGFR-1 (Homo sapiens, UniProt P17948); assay: Z`-LYTE kinase profiling, VEGFR-1; type: biochemical
# T6 construct: purchased Invitrogen/Life Technologies
# IGF-1R = target: T7, IGF-1R (Homo sapiens, UniProt P08069); assay: Z`-LYTE kinase profiling, IGF-1R; type: biochemical
# T7 construct: purchased Invitrogen/Life Technologies
# FRK = target: T8, FRK (Homo sapiens, UniProt P42685); assay: Z`-LYTE kinase profiling, FRK; type: biochemical
# T8 construct: purchased Invitrogen/Life Technologies
# EGFR = EGFR (Homo sapiens, UniProt P00533); assay: Z`-LYTE kinase inhibitory assay, EGFR
# T7 sequence (P08069 31-1367): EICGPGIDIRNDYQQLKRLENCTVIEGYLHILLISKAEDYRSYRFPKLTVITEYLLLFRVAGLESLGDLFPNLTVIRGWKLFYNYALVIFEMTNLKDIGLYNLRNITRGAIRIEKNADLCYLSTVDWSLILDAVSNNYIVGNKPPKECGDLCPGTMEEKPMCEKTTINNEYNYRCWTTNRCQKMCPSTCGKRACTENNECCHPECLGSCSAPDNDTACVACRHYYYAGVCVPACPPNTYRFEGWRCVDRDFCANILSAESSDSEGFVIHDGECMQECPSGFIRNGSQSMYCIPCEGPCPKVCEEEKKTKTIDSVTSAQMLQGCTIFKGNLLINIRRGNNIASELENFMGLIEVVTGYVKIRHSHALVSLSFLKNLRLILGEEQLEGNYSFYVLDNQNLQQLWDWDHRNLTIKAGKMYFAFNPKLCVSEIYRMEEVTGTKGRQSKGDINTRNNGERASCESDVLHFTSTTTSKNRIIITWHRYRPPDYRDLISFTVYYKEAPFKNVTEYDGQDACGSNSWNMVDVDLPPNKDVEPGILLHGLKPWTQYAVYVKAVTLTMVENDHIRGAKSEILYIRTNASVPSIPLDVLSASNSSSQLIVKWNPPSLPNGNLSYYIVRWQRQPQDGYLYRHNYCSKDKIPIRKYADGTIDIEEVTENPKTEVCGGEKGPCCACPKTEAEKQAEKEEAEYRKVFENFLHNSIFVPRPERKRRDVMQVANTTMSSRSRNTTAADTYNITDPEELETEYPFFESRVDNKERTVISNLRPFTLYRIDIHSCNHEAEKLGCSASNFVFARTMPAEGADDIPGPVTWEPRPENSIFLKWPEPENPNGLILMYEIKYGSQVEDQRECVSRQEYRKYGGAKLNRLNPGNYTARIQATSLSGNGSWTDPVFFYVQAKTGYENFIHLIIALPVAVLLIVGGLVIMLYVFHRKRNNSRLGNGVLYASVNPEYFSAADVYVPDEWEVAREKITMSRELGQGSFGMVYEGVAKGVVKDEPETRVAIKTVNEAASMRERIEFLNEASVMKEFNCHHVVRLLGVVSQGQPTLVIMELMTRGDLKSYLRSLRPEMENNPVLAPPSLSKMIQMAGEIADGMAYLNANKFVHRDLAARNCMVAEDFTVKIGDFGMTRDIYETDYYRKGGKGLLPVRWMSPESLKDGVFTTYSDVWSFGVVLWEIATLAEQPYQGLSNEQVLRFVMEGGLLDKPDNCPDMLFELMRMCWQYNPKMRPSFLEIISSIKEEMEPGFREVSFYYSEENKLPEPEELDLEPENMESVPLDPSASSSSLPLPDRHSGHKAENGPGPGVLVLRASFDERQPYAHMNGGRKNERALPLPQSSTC
# T3 sequence (P35968 20-1356): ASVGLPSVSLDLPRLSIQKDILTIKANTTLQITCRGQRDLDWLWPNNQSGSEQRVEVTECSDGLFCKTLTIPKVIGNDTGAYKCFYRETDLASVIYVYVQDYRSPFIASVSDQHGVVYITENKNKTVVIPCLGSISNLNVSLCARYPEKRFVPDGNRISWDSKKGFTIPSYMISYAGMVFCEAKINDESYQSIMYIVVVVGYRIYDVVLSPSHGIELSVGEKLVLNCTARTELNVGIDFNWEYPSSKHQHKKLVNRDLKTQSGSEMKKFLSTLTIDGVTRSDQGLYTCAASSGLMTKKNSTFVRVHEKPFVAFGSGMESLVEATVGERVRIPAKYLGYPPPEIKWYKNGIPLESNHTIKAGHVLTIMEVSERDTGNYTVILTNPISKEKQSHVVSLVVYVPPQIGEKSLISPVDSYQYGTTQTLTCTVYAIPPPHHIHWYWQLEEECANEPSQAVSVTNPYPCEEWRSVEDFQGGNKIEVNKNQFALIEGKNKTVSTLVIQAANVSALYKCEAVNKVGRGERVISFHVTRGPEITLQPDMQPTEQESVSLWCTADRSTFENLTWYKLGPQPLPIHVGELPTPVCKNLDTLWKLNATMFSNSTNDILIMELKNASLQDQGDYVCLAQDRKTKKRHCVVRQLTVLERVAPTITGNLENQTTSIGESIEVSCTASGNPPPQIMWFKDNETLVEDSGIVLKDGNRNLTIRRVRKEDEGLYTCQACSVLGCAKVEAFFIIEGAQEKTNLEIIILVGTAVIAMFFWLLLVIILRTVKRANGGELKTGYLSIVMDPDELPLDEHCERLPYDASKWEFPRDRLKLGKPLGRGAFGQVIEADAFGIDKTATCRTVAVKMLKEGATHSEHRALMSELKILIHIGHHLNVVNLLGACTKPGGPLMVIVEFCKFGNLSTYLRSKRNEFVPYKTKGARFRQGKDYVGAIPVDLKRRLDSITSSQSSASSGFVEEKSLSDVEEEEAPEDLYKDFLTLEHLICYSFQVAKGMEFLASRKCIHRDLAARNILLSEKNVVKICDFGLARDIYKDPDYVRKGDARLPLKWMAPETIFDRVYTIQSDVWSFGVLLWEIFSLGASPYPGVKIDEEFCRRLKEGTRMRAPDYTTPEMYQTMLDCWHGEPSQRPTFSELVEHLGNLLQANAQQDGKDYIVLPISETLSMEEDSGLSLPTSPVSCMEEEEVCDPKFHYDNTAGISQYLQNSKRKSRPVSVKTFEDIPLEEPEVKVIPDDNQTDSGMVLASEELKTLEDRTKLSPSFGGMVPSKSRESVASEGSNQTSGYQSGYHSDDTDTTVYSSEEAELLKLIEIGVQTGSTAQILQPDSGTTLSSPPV
# T6 sequence (P17948 27-1338): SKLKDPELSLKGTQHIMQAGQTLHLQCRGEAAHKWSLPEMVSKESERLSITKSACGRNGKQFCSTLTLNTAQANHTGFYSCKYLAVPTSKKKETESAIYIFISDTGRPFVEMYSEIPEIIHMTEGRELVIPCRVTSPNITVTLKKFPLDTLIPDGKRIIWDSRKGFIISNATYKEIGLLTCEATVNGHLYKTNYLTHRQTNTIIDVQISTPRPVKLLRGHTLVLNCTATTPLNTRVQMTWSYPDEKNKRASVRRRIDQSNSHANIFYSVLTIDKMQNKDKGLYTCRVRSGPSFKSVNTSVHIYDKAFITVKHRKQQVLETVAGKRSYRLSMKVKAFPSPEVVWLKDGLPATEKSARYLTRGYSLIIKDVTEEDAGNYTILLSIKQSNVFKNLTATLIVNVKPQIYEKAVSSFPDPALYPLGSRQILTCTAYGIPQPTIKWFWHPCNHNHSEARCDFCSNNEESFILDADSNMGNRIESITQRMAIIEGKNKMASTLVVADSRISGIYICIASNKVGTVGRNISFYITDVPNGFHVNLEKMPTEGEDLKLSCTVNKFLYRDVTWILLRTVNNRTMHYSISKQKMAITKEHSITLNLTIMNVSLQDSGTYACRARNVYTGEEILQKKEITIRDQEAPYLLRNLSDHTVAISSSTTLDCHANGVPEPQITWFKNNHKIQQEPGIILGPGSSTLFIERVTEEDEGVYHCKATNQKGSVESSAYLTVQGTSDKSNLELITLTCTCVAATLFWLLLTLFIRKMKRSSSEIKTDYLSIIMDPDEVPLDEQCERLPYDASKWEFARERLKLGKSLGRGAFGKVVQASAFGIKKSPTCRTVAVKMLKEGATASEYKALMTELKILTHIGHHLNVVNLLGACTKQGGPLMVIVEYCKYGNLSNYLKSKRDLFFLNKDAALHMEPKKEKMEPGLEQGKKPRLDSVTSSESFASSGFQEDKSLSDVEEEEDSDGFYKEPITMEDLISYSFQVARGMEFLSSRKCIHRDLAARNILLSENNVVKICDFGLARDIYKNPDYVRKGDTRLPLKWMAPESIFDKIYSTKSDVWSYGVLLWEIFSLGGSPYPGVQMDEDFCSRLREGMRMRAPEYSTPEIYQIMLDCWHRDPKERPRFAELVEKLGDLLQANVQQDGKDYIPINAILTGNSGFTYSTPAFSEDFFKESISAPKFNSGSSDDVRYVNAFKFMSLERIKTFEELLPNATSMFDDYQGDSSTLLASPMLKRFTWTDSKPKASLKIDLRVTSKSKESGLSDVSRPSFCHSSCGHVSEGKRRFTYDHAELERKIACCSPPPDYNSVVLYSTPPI
# T8 sequence (P42685 whole entry): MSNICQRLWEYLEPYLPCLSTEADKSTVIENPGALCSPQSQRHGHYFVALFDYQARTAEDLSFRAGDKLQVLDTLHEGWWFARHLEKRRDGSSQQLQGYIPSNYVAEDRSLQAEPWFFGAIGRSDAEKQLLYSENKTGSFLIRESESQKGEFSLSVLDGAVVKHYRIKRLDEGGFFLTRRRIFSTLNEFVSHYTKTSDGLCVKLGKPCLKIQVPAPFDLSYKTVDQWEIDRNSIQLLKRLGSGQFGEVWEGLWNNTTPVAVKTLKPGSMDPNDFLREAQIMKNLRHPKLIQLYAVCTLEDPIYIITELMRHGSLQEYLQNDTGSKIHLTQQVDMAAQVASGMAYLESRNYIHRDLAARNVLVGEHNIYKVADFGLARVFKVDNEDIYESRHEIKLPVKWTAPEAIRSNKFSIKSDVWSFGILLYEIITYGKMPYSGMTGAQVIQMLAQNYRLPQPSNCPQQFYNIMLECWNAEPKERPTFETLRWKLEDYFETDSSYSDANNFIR
# T2 sequence (P12931 whole entry): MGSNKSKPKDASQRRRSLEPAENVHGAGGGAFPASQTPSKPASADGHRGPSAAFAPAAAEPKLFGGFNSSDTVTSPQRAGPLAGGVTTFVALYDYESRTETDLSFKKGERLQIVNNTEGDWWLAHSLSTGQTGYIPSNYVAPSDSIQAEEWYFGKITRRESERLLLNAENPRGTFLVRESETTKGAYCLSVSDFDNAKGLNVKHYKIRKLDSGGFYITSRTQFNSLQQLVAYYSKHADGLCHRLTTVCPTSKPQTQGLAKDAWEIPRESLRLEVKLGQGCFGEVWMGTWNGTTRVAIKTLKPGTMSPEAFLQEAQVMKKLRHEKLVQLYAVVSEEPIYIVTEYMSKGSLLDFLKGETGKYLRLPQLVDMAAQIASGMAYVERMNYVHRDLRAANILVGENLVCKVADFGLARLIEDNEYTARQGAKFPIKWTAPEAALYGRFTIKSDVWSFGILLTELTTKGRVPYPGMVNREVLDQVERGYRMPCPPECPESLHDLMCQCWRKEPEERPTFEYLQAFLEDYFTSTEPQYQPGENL
SMILES,TOP1 inhibitory activity (semiquantitative score relative to 1 µM CPT) (recombinant human TOP1),GI% DLD1 [1],IC50 [1],"fold superior activity compared to Gefitinib, DLD-1 ([1]; from IC50 values)",IC50 (c-Src),GI% MDMBA-231 [2],GI% MCF-7 [3],IC50 (VEGFR-2),IC50 (HER-2),total percentage of AV positive apoptotic DLD-1 cells [4],IC50 (FAK),GI% HCT-116 [5],IC50 [5],GI% Hela [6],IC50 (BTK),IC50 (VEGFR-1),IC50 (IGF-1R),IC50 (FRK),IC50 (EGFR),melting point
"Clc1ccc(-c2cc(OCCCN3CCOCC3)c3cc(-c4ccco4)ccc3n2)cc1 [20f, 4-(3-((2-(4-chlorophenyl)-6-(furan-2-yl)quinolin-4-yl)oxy)propyl)morpholine]",0,94.18%,2090 ± 140 nM,4 fold,92.1 nM,82.58%,87.36%,89.3 nM,251 nM,80.66%,15.4 ± 0.98 nM,91.37%,2960 ± 120 nM,79.64%,23.5 nM,870 nM,3530 nM,632 nM,24.8 ± 2.71 nM,–
"Clc1ccc(-c2cc(OCCCn3ccnc3)c3cc(-c4ccco4)ccc3n2)cc1 [20e, 4-(3-(1H-imidazol-1-yl)propoxy)-2-(4-chlorophenyl)-6-(furan-2-yl)quinoline]",0,90.65%,4460 ± 650 nM,–,138 nM,56.29%,73.61%,243 nM,98.8 nM,–,25.4 ± 3.48 nM,89.64%,4750 ± 1020 nM,65.73%,271 nM,720 nM,3010 nM,216 nM,33.7 ± 1.02 nM,130 to 132 °C
"Fc1ccc(-c2cc(OCCCn3ccnc3)c3cc(Br)ccc3n2)cc1 [16c, 4-(3-(1H-imidazol-1-yl)propoxy)-6-bromo-2-(4-fluorophenyl)quinoline]",+ (+: 25–50% 1 µM CPT),12.25%,> 100000 nM,–,1730 nM,20.11%,4.36%,5100 nM,1610 nM,–,224 ± 10.5 nM,18.14%,88000 ± 5240 nM,8.67%,5620 nM,2560 nM,6690 nM,6670 nM,485 ± 11.4 nM,144 to 146 °C
"FC(F)(F)c1ccc(-c2cc(OCCCNC3CCCCC3)c3ccccc3n2)cc1 [10b, N-(3-((2-(4-(trifluoromethyl)phenyl)quinolin-4-yl)oxy)propyl)cyclohexanamine]",0,35.72%,40300 ± 2090 nM,–,7780 nM,45.35%,64.81%,8680 nM,598 nM,–,165 ± 5.37 nM,24.10%,> 100000 nM,55.49%,2980 nM,8510 nM,5740 nM,4370 nM,180 ± 9.12 nM,68 to 70 °C
